In ChEMBL document CHEMBL1147720, “Discovery and initial SAR of inhibitors of interleukin-1 receptor-associated kinase-4” (Bioorg Med Chem Lett, 2006):

Each compound was assayed against Interleukin-1 receptor-associated kinase 1 (Homo sapiens, UniProt P51617) (assay: Inhibition of IRAK1). Settings: not given.
Chain of Interleukin-1 receptor-associated kinase 1 (P51617 whole entry): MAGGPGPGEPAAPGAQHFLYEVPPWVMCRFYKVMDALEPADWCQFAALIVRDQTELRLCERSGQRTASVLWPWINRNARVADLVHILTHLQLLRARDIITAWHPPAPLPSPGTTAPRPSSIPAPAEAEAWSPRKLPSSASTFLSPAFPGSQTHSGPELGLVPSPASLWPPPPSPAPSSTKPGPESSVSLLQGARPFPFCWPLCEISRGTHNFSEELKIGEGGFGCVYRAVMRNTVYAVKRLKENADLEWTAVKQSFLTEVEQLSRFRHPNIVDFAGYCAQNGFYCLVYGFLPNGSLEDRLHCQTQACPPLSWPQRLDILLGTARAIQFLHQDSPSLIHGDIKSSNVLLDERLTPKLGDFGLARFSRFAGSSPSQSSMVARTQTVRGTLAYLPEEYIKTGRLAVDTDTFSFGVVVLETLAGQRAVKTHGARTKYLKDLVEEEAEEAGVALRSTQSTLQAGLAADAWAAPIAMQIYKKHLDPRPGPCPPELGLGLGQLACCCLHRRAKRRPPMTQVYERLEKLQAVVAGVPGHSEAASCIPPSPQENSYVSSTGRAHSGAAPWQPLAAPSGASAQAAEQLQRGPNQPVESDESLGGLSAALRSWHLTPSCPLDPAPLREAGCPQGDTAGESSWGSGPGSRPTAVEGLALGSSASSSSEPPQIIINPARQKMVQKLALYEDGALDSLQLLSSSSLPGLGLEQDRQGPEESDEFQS

| SMILES | IC50 [µM] |
| --- | --- |
| CCOC(=O)Cn1c(NC(=O)c2cccc([N+](=O)[O-])c2)nc2ccccc21 | 0.75 |
| O=C(Nc1nc2ccccc2n1CCN1CCOCC1)c1cccc([N+](=O)[O-])c1 | 0.3 |

The compounds below were run against T1, Interleukin-1 receptor-associated kinase 4 (Homo sapiens, UniProt Q9NWZ3) (assay: Inhibition of IRAK4). Settings: not given.
T1 sequence (Q9NWZ3 whole entry): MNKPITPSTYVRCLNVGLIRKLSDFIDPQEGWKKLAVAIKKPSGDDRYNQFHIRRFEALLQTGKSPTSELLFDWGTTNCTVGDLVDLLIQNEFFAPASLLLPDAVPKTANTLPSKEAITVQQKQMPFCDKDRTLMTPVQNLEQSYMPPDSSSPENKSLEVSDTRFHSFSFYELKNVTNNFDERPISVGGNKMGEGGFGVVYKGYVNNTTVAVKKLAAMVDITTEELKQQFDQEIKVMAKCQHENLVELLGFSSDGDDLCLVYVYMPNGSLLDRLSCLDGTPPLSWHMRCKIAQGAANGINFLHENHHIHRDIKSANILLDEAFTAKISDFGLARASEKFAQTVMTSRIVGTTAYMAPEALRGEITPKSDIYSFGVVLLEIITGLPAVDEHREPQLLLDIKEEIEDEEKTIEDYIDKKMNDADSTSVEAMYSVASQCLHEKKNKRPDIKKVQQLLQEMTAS

| SMILES | IC50 [µM] |
| --- | --- |
| C=CCN(C(=O)c1cccc([N+](=O)[O-])c1)c1nc2ccccc2n1CC=C | > 30 |
| O=C(Nc1nc2ccccc2[nH]1)c1cccc([N+](=O)[O-])c1 | 4 |
| CCOC(=O)CCn1c(NC(=O)c2cccc([N+](=O)[O-])c2)nc2ccccc21 | 1 |
| O=C(Nc1nc2ccccc2n1CCO)c1cccc([N+](=O)[O-])c1 | 0.4 |
| CN(C(=O)c1cccc([N+](=O)[O-])c1)c1nc2ccccc2n1C1CCOC1=O (stereo unspecified) | > 30 |
| CCCCn1c(NC(=O)c2cccc([N+](=O)[O-])c2)nc2ccccc21 | 2 |
| O=C(Nc1nc2ccccc2n1CC1CCCO1)c1cccc([N+](=O)[O-])c1 (stereo unspecified) | 0.5 |
| O=C(Nc1nc2cc(F)c(F)cc2[nH]1)c1cccc([N+](=O)[O-])c1 | 30 |
| CCOCCn1c(NC(=O)c2cccc([N+](=O)[O-])c2)nc2ccccc21 | 2 |
| O=C(Nc1nc2ccc(Cl)cc2[nH]1)c1cccc([N+](=O)[O-])c1 | 6 |
| Cc1cc2nc(NC(=O)c3cccc([N+](=O)[O-])c3)[nH]c2cc1C | 8 |
| O=C(Nc1nc2ccccc2n1C1CCOC1=O)c1cccc([N+](=O)[O-])c1 (stereo unspecified) | 0.55 |
| CCCS(=O)(=O)c1ccc2[nH]c(NC(=O)c3cccc([N+](=O)[O-])c3)nc2c1 | 4 |
| O=C(Nc1nc2ccccc2n1CCC1CCC1)c1cccc([N+](=O)[O-])c1 | 2 |
| CCCCn1c(NC(=O)c2ccc(OC)cc2)nc2ccccc21 | 6.5 |
| O=C(Nc1nc2ccccc2[nH]1)c1ccc(F)c([N+](=O)[O-])c1 | 6.5 |
| CCCCn1c(NC(=O)c2ccc(Cl)c(Cl)c2)nc2ccccc21 | 3 |
| CC(C)n1c(NC(=O)c2cccc([N+](=O)[O-])c2)nc2ccccc21 | 1 |

| SMILES | IC50 [µM] |
| --- | --- |
| O=C(O)CCn1c(NC(=O)c2cccc([N+](=O)[O-])c2)nc2ccccc21 | 4 |
| Cc1ccc(C(=O)Nc2nc3ccccc3[nH]2)cc1[N+](=O)[O-] | 12 |
| CCCCn1c(NC(=O)c2cccc(Cl)c2)nc2ccccc21 | 30 |
| COCCn1c(NC(=O)c2cccc([N+](=O)[O-])c2)nc2ccccc21 | 1 |
| CCCCCn1c(NC(=O)c2cccc([N+](=O)[O-])c2)nc2ccccc21 | 20 |
| C=CCn1c(NC(=O)c2cccc([N+](=O)[O-])c2)nc2ccccc21 | 1 |
| CCOC(=O)Cn1c(NC(=O)c2cccc([N+](=O)[O-])c2)nc2ccccc21 | 0.4 |
| O=C(Nc1nc2ccc(F)cc2[nH]1)c1cccc([N+](=O)[O-])c1 | 4.5 |
| COc1ccc2nc(NC(=O)c3cccc([N+](=O)[O-])c3)[nH]c2c1 | 1.5 |
| CN(C)CCCn1c(NC(=O)c2cccc([N+](=O)[O-])c2)nc2ccccc21 | 4 |
| CCN(CC)CCn1c(NC(=O)c2cccc([N+](=O)[O-])c2)nc2ccccc21 | 3 |
| O=C(Nc1nc2cc[nH]cc-2n1)c1cccc([N+](=O)[O-])c1 | 30 |
| O=C(Nc1nc2ccccc2n1CCN1CCOCC1)c1cccc([N+](=O)[O-])c1 | 0.2 |
| COC(=O)c1ccc2[nH]c(NC(=O)c3cccc([N+](=O)[O-])c3)nc2c1 | 25 |
| CCn1c(NC(=O)c2cccc([N+](=O)[O-])c2)nc2ccccc21 | 2 |
| Cc1ccc2nc(NC(=O)c3cccc([N+](=O)[O-])c3)[nH]c2c1 | 0.8 |
| N#Cc1cccc(C(=O)Nc2nc3ccccc3[nH]2)c1 | 13.6 |

The compounds below were run against T2, Interleukin-1 receptor-associated kinase 4 (Homo sapiens) (UniProt Q9NWZ3) (assay: Inhibition of IRAK4 at 30 uM). Settings: not given.
T2 sequence (whole entry): T1 sequence (Q9NWZ3 whole entry)

| SMILES | inhibition [%] |
| --- | --- |
| CCCCn1c(NC(=O)c2ccc([N+](=O)[O-])cc2)nc2ccccc21 | 8 |
| O=[N+]([O-])c1cccc(S(=O)(=O)Nc2nc3ccccc3[nH]2)c1 | 45 |
| O=C(Nc1nc2ccccc2[nH]1)c1ccccc1 | 11 |
| O=C(Nc1cccc([N+](=O)[O-])c1)Nc1nc2ccccc2[nH]1 | 15 |
| O=C(Nc1nc2ccc[nH]c-2n1)c1cccc([N+](=O)[O-])c1 | 39 |
| O=[N+]([O-])c1cccc(CNc2nc3ccccc3[nH]2)c1 | 8 |
| O=C(Nc1nc2c(F)c(F)ccc2[nH]1)c1cccc([N+](=O)[O-])c1 | 24 |
| O=C(Nc1nc2cc(Cl)c(Cl)cc2[nH]1)c1cccc([N+](=O)[O-])c1 | 10 |
| O=C(Nc1nc2c([N+](=O)[O-])cccc2[nH]1)c1cccc([N+](=O)[O-])c1 | 25 |
| O=C(Nc1nc2cc([N+](=O)[O-])ccc2[nH]1)c1cccc([N+](=O)[O-])c1 | 29 |
| O=C(O)Cn1c(NC(=O)c2cccc([N+](=O)[O-])c2)nc2ccccc21 | 38 |
| O=C(Nc1nc2ccccc2s1)c1cccc([N+](=O)[O-])c1 | 11 |

What follows are compounds tested on HeLa (assay: Antiproliferative activity against human HeLa cell line after 72 hrs). Settings: read-out: ED50 (the source's name).
Format: functional

| SMILES | EC50 [µM] |
| --- | --- |
| CCOC(=O)Cn1c(NC(=O)c2cccc([N+](=O)[O-])c2)nc2ccccc21 | > 30 |
| O=C(Nc1nc2ccccc2n1CCN1CCOCC1)c1cccc([N+](=O)[O-])c1 | > 30 |
